Laboratory results reported in ChEMBL document CHEMBL4842358, “Design, synthesis and biological evaluation of sphingosine-1-phosphate receptor 2 antagonists as potent 5-FU-resistance reversal agents for the treatment of colorectal cancer” (Eur J Med Chem, 2021).
Active and inactive are the calls of the source. The rule behind the calls is not given here.

Columns and labels:
[1] = Reversal of 5-FU resistance against human SW620/5-FU cells assessed as inhibition of cell proliferation measured after 72 hrs in presence of 5-FU by MTT assay; assay type: functional, cell-based
[2] = target: T1, Sphingosine 1-phosphate receptor 2 (Homo sapiens, UniProt O95136); test: Binding affinity to S1PR2 (unknown origin) assessed as dissociation constant measured for 60 secs by surface plasmon resonance assay
T1 sequence (O95136 whole entry): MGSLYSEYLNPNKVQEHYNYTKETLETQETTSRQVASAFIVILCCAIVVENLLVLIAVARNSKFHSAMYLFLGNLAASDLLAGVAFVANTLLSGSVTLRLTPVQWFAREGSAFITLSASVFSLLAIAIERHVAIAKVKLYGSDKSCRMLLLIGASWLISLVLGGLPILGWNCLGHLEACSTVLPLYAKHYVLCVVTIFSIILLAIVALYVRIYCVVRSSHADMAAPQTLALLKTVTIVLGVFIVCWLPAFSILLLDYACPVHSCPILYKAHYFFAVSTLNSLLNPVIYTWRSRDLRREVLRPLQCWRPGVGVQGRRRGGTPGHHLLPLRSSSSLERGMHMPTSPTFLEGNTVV

HCT-116 = test: Reversal of 5-FU resistance against human HCT-116 cells overexpressing DPD assessed as inhibition of cell proliferation measured after 72 hrs in presence of 5-FU by MTT assay; assay type: functional, cell-based; settings: HCT-116, 72 h
[3] = target: T1, Sphingosine 1-phosphate receptor 2; test: Binding affinity to S1PR2 (unknown origin) measured by surface plasmon resonance assay; settings: filed as antagonist
[4] = target: T1, Sphingosine 1-phosphate receptor 2; test: Binding affinity to S1PR2 (unknown origin) assessed as association constant measured for 60 secs by surface plasmon resonance assay; settings: filed as antagonist, time 60.0 sec
NCM460 = test: Cytotoxicity against human NCM460 cells assessed as cell viability measured after 72 hrs in presence of 5-FU by MTT assay; assay type: cell-based; settings: NCM460, 72 h
[5] = target: T1, Sphingosine 1-phosphate receptor 2; test: Antagonist activity at S1PR2 in human SW620/5-FU cells assessed as downregulation of DPD expression by western blot analysis; assay type: functional, cell-based; settings: filed as antagonist

SMILES	EC50 [1] [µM]	Dissociation rate constant (koff) [2]	EC50 (HCT-116) [µM]	K [3]	Ka [4]	EC50 (NCM460) [µM]	inhibition [5]
Cn1ccc2c(-c3ccccc3)nc(NNC(=O)Nc3cc(Cl)nc(Cl)c3)nc21	528	1.36 10^-1/s	660	2.61 10^-6M	5.21 10^4/M/s	683	–
Cc1cc(NC(=O)Nc2cc(Cl)nc(Cl)c2)n(C)n1	67.2	1.77 10^-1/s	94.2	3.3 10^-6M	5.36 10^4/M/s	134	–
O=C(NNc1nc(Nc2ccccc2)nc(N2CCCC2)n1)Nc1cc(Cl)nc(Cl)c1	31.9	1.33 10^-1/s	23.2	1.86 10^-7M	7.15 10^5/M/s	65.2	–
O=C(Nc1cc(Cl)nc(Cl)c1)Nc1cc2ccc(-c3ccccc3)cn2n1	9.25	2.01 10^-1/s	5.13	4.38 10^-8M	4.59 10^6/M/s	8.05	Active
O=C(Nc1cc(Cl)nc(Cl)c1)Nc1cc2ccc(Br)cn2n1	11.7	0.168 s⁻¹	5.26	2.02 10^-8M	8.31 10^7/M/s	8.94	Active
COc1cc(NC(=O)Nc2cc(Cl)nc(Cl)c2)cc(Cl)n1	14.2	2.19 10^-1/s	11.2	6.82 10^-7M	3.21 10^5/M/s	33.2	Active
COc1ccc(-c2ccc3cc(NC(=O)Nc4cc(Cl)nc(Cl)c4)nn3c2)cc1	9.62	1.12 10^-1/s	5.35	1.22 10^-8M	9.12 10^6/M/s	8.35	Active
O=c1[nH]cc(F)c(=O)[nH]1 [FLUOROURACIL]	> 1000	–	> 1000	–	–	43.3	–
CN1CCN(C(=O)Nc2cc(Cl)nc(Cl)c2)CC1	548	1.06 10^-1/s	142	5.35 10^-7M	1.98 10^5/M/s	521	–
O=C(Nc1ccnc(Cl)c1)Nc1cc(Cl)nc(Cl)c1	31.2	2.01 10^-1/s	16.1	5.5 10^-6M	3.65 10^4/M/s	55.3	–
CN(C)c1nc(NNC(=O)Nc2cc(Cl)nc(Cl)c2)nc2c1ccn2C	48.2	1.02 10^-1/s	41.5	1.85 10^-6M	7.55 10^4/M/s	58.5	–
O=C(NNc1nc(N2CCOCC2)c2ccn(C3CC3)c2n1)Nc1cc(Cl)nc(Cl)c1	436	1.33 10^-1/s	449	2.17 10^-6M	6.12 10^4/M/s	549	–
Cc1cc(NC(=O)Nc2cc(Cl)nc(Cl)c2)cc(C)n1	234	1.46 10^-1/s	86.2	2.57 10^-8M	5.69 10^6/M/s	576	–
COc1c(Cl)cc(NC(=O)Nc2cc(Cl)nc(Cl)c2)cc1Cl	8.25	3.12 10^-1/s	41.5	5 10^-8M	6.24 10^6/M/s	27.3	Active
O=C(Nc1cc(Cl)nc(Cl)c1)Nc1cc(Cl)nc(OC2CCCC2)c1	6.15	1.79 10^-1/s	5.12	3.99 10^-7M	4.49 10^5/M/s	21.4	Active
CC(C)Oc1cc(NC(=O)Nc2cc(Cl)nc(Cl)c2)cc(Cl)n1	5.17	1.19 10^-1/s	5.23	1.3 10^-7M	9.14 10^5/M/s	21.1	Active
O=C(Nc1cc(Cl)cc(Cl)c1)Nc1cc(Cl)nc(Cl)c1	12.2	1.16 10^-1/s	11.4	3.56 10^-6M	3.26 10^4/M/s	55.4	Active
O=C(Nc1cc(Cl)nc(Cl)c1)Nc1cc2ccccn2n1	2.49	1.16 10^-1/s	5.13	1.46 10^-8M	7.93 10^6/M/s	10.2	Active
CCOc1cc(NC(=O)Nc2cc(Cl)nc(Cl)c2)cc(Cl)n1	8.15	1.02 10^-1/s	6.13	5.2 10^-7M	1.96 10^5/M/s	25.3	Active
CNc1cc(C)nc(NNC(=O)Nc2cc(Cl)nc(Cl)c2)n1	122	2.36 10^-1/s	23.4	4.24 10^-6M	5.56 10^4/M/s	65.3	–
